Assay results reported in ChEMBL document CHEMBL4433257, “Novel conjugates of podophyllotoxin and coumarin: Synthesis, cytotoxicities, cell cycle arrest, binding CT DNA and inhibition of Topo IIβ” (Bioorg Med Chem Lett, 2019).
Activity calls are given as the source filed them. The rule behind the calls is not given here.

Assays:
HepG2 = assay: Cytotoxicity against human HepG2 cells incubated for 48 hrs by MTT assay; type: functional, cell-based; conditions: HepG2, 48 h
A549 = assay: Cytotoxicity against human A549 cells incubated for 48 hrs by MTT assay; type: functional, cell-based; conditions: A549, 48 h
HeLa = assay: Cytotoxicity against human HeLa cells incubated for 48 hrs by MTT assay; type: functional, cell-based
LoVo [1] = assay: Cytotoxicity against human LoVo cells incubated for 48 hrs by MTT assay; type: functional, cell-based
LoVo [2] = assay: Induction of cell cycle arrest in human LoVo cells assessed as decrease in topo 2alpha expression level at 5 uM incubated for 12 hrs by Western blot analysis; type: functional, cell-based
LoVo [3] = assay: Cell cycle arrest in human LoVo cells assessed as accumulation at G1 phase at 5 uM incubated for 48 hrs by propidium iodide staining based flow cytometry analysis relative to control; type: functional
Calf thymus DNA [4] = assay: Binding affinity to calf thymus DNA assessed as reduction in absorbance of DNA at 50 uM using varying DNA level by UV/visible spectrophotometric analysis; type: nucleic-acid assay; conditions: Bos taurus
LoVo [5] = assay: Induction of cell cycle arrest in human LoVo cells assessed as increase in P21 gene expression level incubated for 24 hrs by Western blot analysis; type: functional, cell-based
LoVo [6] = assay: Cell cycle arrest in human LoVo cells assessed as accumulation at G1 phase at 10 uM incubated for 24 hrs by propidium iodide staining based flow cytometry analysis (reference value: 51.9%); type: functional
LoVo [7] = assay: Antiproliferative activity against human LoVo cells assessed as induction of nuclear cleavage at 20 uM incubated for 6 hrs by immunofluorescence microscopy assay; type: functional, cell-based
LoVo [8] = assay: Induction of cell cycle arrest in human LoVo cells assessed as decrease in topo 2beta expression level at 5 uM incubated for 12 hrs by Western blot analysis; type: functional, cell-based
LoVo [9] = assay: Antiproliferative activity against human LoVo cells assessed as interference with mitosis at 10 to 20 uM incubated for 6 hrs by immunofluorescence microscopy assay; type: functional, cell-based
LoVo [10] = assay: Antiproliferative activity against human LoVo cells assessed as meshy microtubule network shrinkage around nucleus incubated for 6 hrs by immunofluorescence microscopy assay; type: functional, cell-based
LoVo [11] = assay: Antiproliferative activity against human LoVo cells assessed as abnormal mitotic spindle formation at 20 uM incubated for 6 hrs by immunofluorescence microscopy assay; type: functional, cell-based
LoVo [12] = assay: Cell cycle arrest in human LoVo cells assessed as increase in accumulation at G1 phase incubated for 24 hrs by propidium iodide staining based flow cytometry analysis; type: functional
Calf thymus DNA [13] = assay: Binding affinity to calf thymus DNA assessed as reduction in absorbance of DNA at 20 to 40 uM by UV/visible spectrophotometric analysis; type: nucleic-acid assay; conditions: Bos taurus
LoVo [14] = assay: Antiproliferative activity against human LoVo cells assessed as induction of nuclei damage at 10 to 20 uM incubated for 6 hrs by immunofluorescence microscopy assay; type: functional, cell-based
LoVo [15] = assay: Antiproliferative activity against human LoVo cells assessed as disruption of microtubule organization at 10 to 20 uM incubated for 6 hrs by immunofluorescence microscopy assay; type: functional, cell-based
LoVo [16] = assay: Cell cycle arrest in human LoVo cells assessed as accumulation at G1 phase at 5 uM incubated for 72 hrs by propidium iodide staining based flow cytometry analysis relative to control; type: functional
LoVo [17] = assay: Induction of cell cycle arrest in human LoVo cells assessed as change in cyclin B1 gene expression level at 1 to 10 uM incubated for 24 hrs by Western blot analysis; type: functional, cell-based
LoVo [18] = assay: Cell cycle arrest in human LoVo cells assessed as accumulation at G1 phase at 5 uM incubated for 24 hrs by propidium iodide staining based flow cytometry analysis (reference value: 51.9%); type: functional
Calf thymus DNA [19] = assay: Binding affinity to calf thymus DNA assessed as reduction in compound emission intensity at 10 uM using varying DNA level by spectrofluorimetric analysis; type: nucleic-acid assay; conditions: Bos taurus
LoVo [20] = assay: Induction of cell cycle arrest in human LoVo cells assessed as change in cdc2 gene expression level at 1 to 10 uM incubated for 24 hrs by Western blot analysis; type: functional, cell-based
LoVo [21] = assay: Induction of cell cycle arrest in human LoVo cells assessed as decrease in cyclin D1 gene expression level incubated for 24 hrs by Western blot analysis; type: functional, cell-based
LoVo [22] = assay: Cell cycle arrest in human LoVo cells assessed as decrease in G2/M phase cell count incubated for 24 hrs by propidium iodide staining based flow cytometry analysis; type: functional
LoVo [23] = assay: Induction of cell cycle arrest in human LoVo cells assessed as change in cdc2 gene expression level at 10 uM incubated for 24 hrs by Western blot analysis; type: functional, cell-based
LoVo [24] = assay: Antiproliferative activity against human LoVo cells assessed as disorganization of microtubule network at 10 uM incubated for 6 hrs by immunofluorescence microscopy assay; type: functional, cell-based
LoVo [25] = assay: Antiproliferative activity against human LoVo cells assessed as nuclear changes at 10 uM incubated for 6 hrs by immunofluorescence microscopy assay; type: functional, cell-based
LoVo [26] = assay: Induction of cell cycle arrest in human LoVo cells assessed as change in P21 gene expression level at 10 uM incubated for 24 hrs by Western blot analysis; type: functional, cell-based
LoVo [27] = assay: Induction of cell cycle arrest in human LoVo cells assessed as decrease in cyclin D1 gene expression level at 10 uM incubated for 24 hrs by Western blot analysis; type: functional, cell-based
LoVo [28] = assay: Induction of cell cycle arrest in human LoVo cells assessed as change in cyclin D1 gene expression level at 10 uM incubated for 24 hrs by Western blot analysis; type: functional, cell-based

Structure (SMILES): COc1cc([C@@H]2c3cc4c(cc3[C@@H](n3cc(CNc5cc(=O)oc6ccc(C)cc56)nn3)[C@H]3COC(=O)[C@H]23)OCO4)cc(OC)c1O
- IC50 (HepG2): 17.2 µM
- IC50 (A549): 34.8 µM
- IC50 (HeLa): 38.3 µM
- IC50 (LoVo [1]): 76 µM

Structure (SMILES): COc1cc([C@@H]2c3cc4c(cc3[C@@H](n3cc(COc5cc(=O)oc6ccc(Br)cc56)nn3)[C@H]3COC(=O)[C@H]23)OCO4)cc(OC)c1O
- IC50 (HepG2): 4 µM
- IC50 (A549): 27.7 µM
- IC50 (HeLa): 20.1 µM
- IC50 (LoVo [1]): 19.8 µM

Structure (SMILES): COc1cc([C@@H]2c3cc4c(cc3[C@@H](n3cc(CNc5cc(=O)oc6cc(Br)ccc56)nn3)[C@H]3COC(=O)[C@H]23)OCO4)cc(OC)c1O
- IC50 (HepG2): 13.6 µM
- IC50 (A549): 13.3 µM
- IC50 (HeLa): 19.8 µM
- IC50 (LoVo [1]): 7.3 µM

Structure (SMILES): COc1ccc2oc(=O)cc(NCc3cn([C@@H]4c5cc6c(cc5[C@@H](c5cc(OC)c(O)c(OC)c5)[C@H]5C(=O)OC[C@@H]54)OCO6)nn3)c2c1
- Activity (LoVo [2]): Active
- Activity (LoVo [3]): 70.1%
- Activity (Calf thymus DNA [4]): inactive
- Activity (LoVo [5]): Dose-dependent effect
- IC50 (HepG2): 9.9 µM
- Activity (LoVo [6]): 79%
- Activity (LoVo [7]): Active
- Activity (LoVo [8]): Active
- Activity (LoVo [9]): Active
- IC50 (A549): 17.5 µM
- Activity (LoVo [10]): Active
- Activity (LoVo [11]): Active
- Activity (LoVo [12]): Dose-dependent effect
- Activity (Calf thymus DNA [13]): Active
- Activity (LoVo [14]): Active
- Activity (LoVo [15]): Active
- Activity (LoVo [16]): 90%
- Activity (LoVo [17]): inactive
- IC50 (HeLa): 9.7 µM
- IC50 (LoVo [1]): 4.9 µM
- Activity (LoVo [18]): 62%
- Activity (Calf thymus DNA [19]): Active
- Activity (LoVo [20]): inactive
- Activity (LoVo [21]): Dose-dependent effect
- Activity (LoVo [22]): Dose-dependent effect

Structure (SMILES): COc1cc([C@@H]2c3cc4c(cc3[C@@H](n3cc(COc5cc(=O)oc6ccccc56)nn3)[C@H]3COC(=O)[C@H]23)OCO4)cc(OC)c1O
- IC50 (HepG2): 31.3 µM
- IC50 (A549): > 100 µM
- IC50 (HeLa): 32.2 µM
- IC50 (LoVo [1]): 40.8 µM

Structure (SMILES): COc1ccc2c(OCc3cn([C@@H]4c5cc6c(cc5[C@@H](c5cc(OC)c(O)c(OC)c5)[C@H]5C(=O)OC[C@@H]54)OCO6)nn3)cc(=O)oc2c1
- IC50 (HepG2): 27.5 µM
- IC50 (A549): 40.3 µM
- IC50 (HeLa): > 100 µM
- IC50 (LoVo [1]): > 100 µM

Structure (SMILES): COc1cc([C@@H]2c3cc4c(cc3[C@@H](O[C@@H]3O[C@@H]5CO[C@@H](C)O[C@H]5[C@H](O)[C@H]3O)[C@H]3COC(=O)[C@H]23)OCO4)cc(OC)c1O [ETOPOSIDE]
- Activity (LoVo [2]): Active
- Activity (LoVo [23]): Active
- IC50 (HepG2): 10.5 µM
- Activity (LoVo [8]): Active
- IC50 (A549): 25.6 µM
- Activity (LoVo [24]): Active
- Activity (LoVo [25]): inactive
- Activity (LoVo [26]): Active
- Activity (LoVo [16]): 2%
- Activity (LoVo [27]): Active
- Activity (LoVo [28]): Active
- IC50 (LoVo [1]): 14.9 µM
- Activity (LoVo [18]): 29.5%

Structure (SMILES): COc1ccc2oc(=O)cc(OCc3cn([C@@H]4c5cc6c(cc5[C@@H](c5cc(OC)c(O)c(OC)c5)[C@H]5C(=O)OC[C@@H]54)OCO6)nn3)c2c1
- IC50 (HepG2): 8 µM
- IC50 (A549): 19.6 µM
- IC50 (HeLa): 18.3 µM
- IC50 (LoVo [1]): 9.4 µM

Structure (SMILES): COc1cc([C@@H]2c3cc4c(cc3[C@@H](n3cc(COc5cc(=O)oc6cc(Br)ccc56)nn3)[C@H]3COC(=O)[C@H]23)OCO4)cc(OC)c1O
- IC50 (HepG2): 15.6 µM
- IC50 (A549): 23.8 µM
- IC50 (HeLa): > 100 µM
- IC50 (LoVo [1]): 24.2 µM

Structure (SMILES): COc1cc([C@@H]2c3cc4c(cc3[C@@H](n3cc(CNc5cc(=O)oc6ccccc56)nn3)[C@H]3COC(=O)[C@H]23)OCO4)cc(OC)c1O
- IC50 (HepG2): 27.5 µM
- IC50 (A549): 21.4 µM
- IC50 (HeLa): 27.2 µM
- IC50 (LoVo [1]): 38.6 µM

Structure (SMILES): COc1cc([C@@H]2c3cc4c(cc3[C@@H](n3cc(COc5cc(=O)oc6ccc(C)cc56)nn3)[C@H]3COC(=O)[C@H]23)OCO4)cc(OC)c1O
- IC50 (HepG2): 40.2 µM
- IC50 (A549): > 100 µM
- IC50 (HeLa): 45.4 µM
- IC50 (LoVo [1]): 33.2 µM

Structure (SMILES): COc1ccc2c(NCc3cn([C@@H]4c5cc6c(cc5[C@@H](c5cc(OC)c(O)c(OC)c5)[C@H]5C(=O)OC[C@@H]54)OCO6)nn3)cc(=O)oc2c1
- IC50 (HepG2): 11.1 µM
- IC50 (A549): 28.1 µM
- IC50 (HeLa): 48.2 µM
- IC50 (LoVo [1]): 12.6 µM

Structure (SMILES): COc1cc([C@@H]2c3cc4c(cc3[C@@H](n3cc(CNc5cc(=O)oc6ccc(Br)cc56)nn3)[C@H]3COC(=O)[C@H]23)OCO4)cc(OC)c1O
- IC50 (HepG2): 9.3 µM
- IC50 (A549): 8.6 µM
- IC50 (HeLa): 15.2 µM
- IC50 (LoVo [1]): 8.7 µM
